# Measured values taken from patent US12558357B2, “Tetrahydroquinazoline derivatives as selective cytotoxic agents” (Merck Sharp & Dohme LLC, priority 2020, dated 2026).
# pEC50: −log10 of the molar value.
# Tested on: PBMCs infected with VSV-G pseudotyped HIV virus (VSV-G/pNLG1-P2A-ΔEnv)
# Assay: cells
# Assay type: cell-based, human
# Conditions: Homo sapiens, PBMC, read-out: EC50 (HIV-TACK cell kill activity)
row,SMILES,pEC50
1,"Nc1nccn(Cc2cc3c(cc2Cl)[C@@](C#CC2CC2)(C(F)(F)F)NC(=O)N3)c1=O [Example 58, (S)-7-((3-amino-2-oxopyrazin-1(2H)-yl)methyl)-6-chloro-4-(cyclopropylethynyl)-4-(trifluoromethyl)-3,4-dihydroquinazolin-2(1H)-one]",7.39
2,"Cc1cn(Cc2ccc3c(c2)NC(=O)N[C@]3(C#CC2CC2)C(F)(F)F)c(=O)c(N)n1 [Example 59, (S)-7-((3-amino-5-methyl-2-oxopyrazin-1(2H)-yl)methyl)-4-(cyclopropylethynyl)-4-(trifluoromethyl)-3,4-dihydroquinazolin-2(1H)-one]",7.11
3,"Cc1nc(N)c(=O)n(Cc2ccc3c(c2)NC(=O)N[C@]3(C#CC2CC2)C(F)(F)F)c1C [Example 60, (S)-7-((3-amino-5,6-dimethyl-2-oxopyrazin-1(2H)-yl)methyl)-4-(cyclopropylethynyl)-4-(trifluoromethyl)-3,4-dihydroquinazolin-2(1H)-one]",6.81
4,"COCc1cc(=O)n(Cc2cc3c(cc2Cl)[C@@](C#CC2CC2)(C(F)(F)F)NC(=O)N3)cn1 [Example 61, (S)-6-chloro-4-(cyclopropylethynyl)-7-((4-(methoxymethyl)-6-oxopyrimidin-1(6H)-yl)methyl)-4-(trifluoromethyl)-3,4-dihydroquinazolin-2(1H)-one]",7.42
5,"O=C1Nc2cc(Cn3cnc(C(F)F)cc3=O)c(Cl)cc2[C@@](C#CC2CC2)(C(F)(F)F)N1 [Example 62, (S)-6-chloro-4-(cyclopropylethynyl)-7-((4-(difluoromethyl)-6-oxopyrimidin-1(6H)-yl)methyl)-4-(trifluoromethyl)-3,4-dihydroquinazolin-2(1H)-one]",7.39
6,"O=C1Nc2cc(Cn3cnc(CO)cc3=O)ccc2[C@@](C#CC2CC2)(C(F)(F)F)N1 [Example 63, (S)-4-(cyclopropylethynyl)-7-((4-(hydroxymethyl)-6-oxopyrimidin-1(6H)-yl)methyl)-4-(trifluoromethyl)-3,4-dihydroquinazolin-2(1H)-one]",6.84
7,"Cc1cc(=O)n(Cc2ccc3c(c2)NC(=O)N[C@]3(C#CC2CC2)C(C)(F)F)cn1 [Example 64, (S)-4-(cyclopropylethynyl)-4-(1,1-difluoroethyl)-7-((4-methyl-6-oxopyrimidin-1(6H)-yl)methyl)-3,4-dihydroquinazolin-2(1H)-one]",7.03
8,"O=C1Nc2cc(Cn3cnc(CO)cc3=O)c(F)cc2[C@@](C#CC2CC2)(C(F)(F)F)N1 [Example 65, (S)-4-(cyclopropylethynyl)-6-fluoro-7-((4-(hydroxymethyl)-6-oxopyrimidin-1(6H)-yl)methyl)-4-(trifluoromethyl)-3,4-dihydroquinazolin-2(1H)-one]",7.35
9,"O=C1Nc2cc(Cn3cncc(CO)c3=O)c(F)cc2[C@@](C#CC2CC2)(C(F)(F)F)N1 [Example 66, (S)-4-(cyclopropylethynyl)-6-fluoro-7-((5-(hydroxymethyl)-6-oxopyrimidin-1(6H)-yl)methyl)-4-(trifluoromethyl)-3,4-dihydroquinazolin-2(1H)-one]",6.73
10,"CC(F)(F)[C@@]1(C#CC2CC2)NC(=O)Nc2cc(Cn3ccnc(N)c3=O)c(F)cc21 [Example 67, (S)-7-((3-amino-2-oxopyrazin-1(2H)-yl)methyl)-4-(cyclopropylethynyl)-4-(1,1-difluoroethyl)-6-fluoro-3,4-dihydroquinazolin-2(1H)-one]",7.92
11,"Nc1nc(Cl)cn(Cc2ccc3c(c2)NC(=O)N[C@]3(C#CC2CC2)C(F)(F)F)c1=O [Example 68, (S)-7-((3-amino-5-chloro-2-oxopyrazin-1(2H)-yl)methyl)-4-(cyclopropylethynyl)-4-(trifluoromethyl)-3,4-dihydroquinazolin-2(1H)-one]",7.15
12,"N#Cc1ncn(Cc2cc3c(cc2F)[C@@](C#CC2CC2)(C(F)(F)F)NC(=O)N3)c(=O)c1N [Example 69, (S)-5-amino-1-((4-(cyclopropylethynyl)-6-fluoro-2-oxo-4-(trifluoromethyl)-1,2,3,4-tetrahydroquinazolin-7-yl)methyl)-6-oxo-1,6-dihydropyrimidine-4-carbonitrile]",7.54
13,"O=c1ccncn1Cc1ccc2c(c1)NC(=S)N[C@]2(C#CC1CC1)C(F)(F)F [Example 70, (S)-3-((4-(cyclopropylethynyl)-2-thioxo-4-(trifluoromethyl)-1,2,3,4-tetrahydroquinazolin-7-yl)methyl)pyrimidin-4(3H)-one]",7.03
14,"Nc1nccn(Cc2ccc3c(c2)NC(=S)N[C@]3(C#CC2CC2)C(F)(F)F)c1=O [Example 71, (S)-3-amino-1-((4-(cyclopropylethynyl)-2-thioxo-4-(trifluoromethyl)-1,2,3,4-tetrahydroquinazolin-7-yl)methyl)pyrazin-2(1H)-one]",7.39
15,"Nc1c(C(F)(F)F)ccn(Cc2ccc3c(c2)NC(=O)N[C@]3(C#CC2CC2)C(F)(F)F)c1=O [Example 72, (S)-7-((3-amino-2-oxo-4-(trifluoromethyl)pyridin-1(2H)-yl)methyl)-4-(cyclopropylethynyl)-4-(trifluoromethyl)-3,4-dihydroquinazolin-2(1H)-one]",6.71
16,"CN1C(=O)Nc2cc(Cn3cnccc3=O)ccc2[C@@]1(C#CC1CC1)C(F)(F)F [Example 73, (S)-4-(cyclopropylethynyl)-3-methyl-7-((6-oxopyrimidin-1(6H)-yl)methyl)-4-(trifluoromethyl)-3,4-dihydroquinazolin-2(1H)-one]",6.56
17,"CCN1C(=O)Nc2cc(Cn3cnccc3=O)ccc2[C@@]1(C#CC1CC1)C(F)(F)F [Example 74, (S)-4-(cyclopropylethynyl)-3-ethyl-7-((6-oxopyrimidin-1(6H)-yl)methyl)-4-(trifluoromethyl)-3,4-dihydroquinazolin-2(1H)-one]",6.58
18,"Cc1cc2c(cc1Cn1cnccc1=O)NC(=O)N[C@]2(C#CC1CC1)C(F)(F)F [Example 80, (S)-4-(cyclopropylethynyl)-6-methyl-7-((6-oxopyrimidin-1(6H)-yl)methyl)-4-(trifluoromethyl)-3,4-dihydroquinazolin-2(1H)-one]",7.24
19,"CC(F)(F)c1ncn(Cc2ccc3c(c2)NC(=O)N[C@]3(C#CC2CC2)C(F)(F)F)c(=O)c1N [Example 81, (S)-7-((5-amino-4-(1,1-difluoroethyl)-6-oxopyrimidin-1(6H)-yl)methyl)-4-(cyclopropylethynyl)-4-(trifluoromethyl)-3,4-dihydroquinazolin-2(1H)-one]",6.78
20,"COc1ccc(=O)n(Cc2cc3c(cc2F)[C@@](C#CC2CC2)(C(C)(F)F)NC(=O)N3)n1 [Example 82, (S)-4-(cyclopropylethynyl)-4-(1,1-difluoroethyl)-6-fluoro-7-((3-methoxy-6-oxopyridazin-1(6H)-yl)methyl)-3,4-dihydroquinazolin-2(1H)-one]",7.18
21,"COc1cnn(Cc2cc3c(cc2F)[C@@](C#CC2CC2)(C(C)(F)F)NC(=O)N3)c(=O)c1 [Example 83, (S)-4-(cyclopropylethynyl)-4-(1,1-difluoroethyl)-6-fluoro-7-((4-methoxy-6-oxopyridazin-1(6H)-yl)methyl)-3,4-dihydroquinazolin-2(1H)-one]",7.29
22,"COc1ccn(Cc2cc3c(cc2F)[C@@](C#CC2CC2)(C(C)(F)F)NC(=O)N3)c(=O)c1 [Example 84, (S)-4-(cyclopropylethynyl)-4-(1,1-difluoroethyl)-6-fluoro-7-((4-methoxy-2-oxopyridin-1(2H)-yl)methyl)-3,4-dihydroquinazolin-2(1H)-one]",7.52
23,"Cc1cn(Cc2cc3c(cc2F)[C@@](C#CC2CC2)(C(C)(F)F)NC(=O)N3)c(=O)c(N)n1 [Example 85, (S)-7-((3-amino-5-methyl-2-oxopyrazin-1(2H)-yl)methyl)-4-(cyclopropylethynyl)-4-(1,1-difluoroethyl)-6-fluoro-3,4-dihydroquinazolin-2(1H)-one]",7.85
